Data from patent publication US12503453B2, “USP7 inhibition” (Dana-Farber Cancer Institute, Inc., priority 2018, dated 2025).

How the values were obtained:
[1] = test system: TC32 cells expressing sgTP53; assay: Cell proliferation of TC32 cells with TP53 knockout; format: cell-based; conditions: 3 days
Protocol: (§1) Cells were plated in 384-well culture-treated plates and allowed to settle overnight. After drug treatment and appropriate incubation time, cell viability was assessed using the CellTiter-Glo Luminescent Cell Viability Assay (Promega). Luminescence was read on a Fluostar Omega Reader (BMG Labtech).
Lentivirus was produced by transfecting HEK-293T cells with the pLentiV2 vector (Addgene plasmid #52961) and the packaging plasmids pCMV8.9 and pCMV-VSVG according to the FuGENE 6 (Roche) protocol. For lentiviral transduction, Ewing sarcoma cells were incubated with 2 mL of virus and 8 μg/mL of polybrene (Sigma-Aldrich). Cells were selected in puromycin (Sigma-Aldrich) 48 hours after infection for single knockout experiments.
sgRNAs were designed using the Broad Institute's sgRNA designer tool. The following sequences were used as control or to target the respective genes: […]

[2] = test system: p53 target genes in MCF7 cells; assay: Quantitative real-time PCR of MCF7 cells; format: cell-based; conditions: 1 μM, 6 or 24 hours
Protocol: After cell treatment under the indicated conditions, total cellular RNA was purified using a Qiagen RNEasy kit. 1 μg of RNA was then converted to cDNA using SuperScript III First-Strand Synthesis (Invitrogen). cDNA from each sample was then combined with the indicated TaqMan probe and 2× MasterMix in a 96-well Fast RT-PCR plate (Invitrogen). qPCR was performed on an Invitrogen 7500 Fast qPCR instrument and gene expression was calculated using the 2^−ΔΔct method on Graphpad Prism.

[3] = test system: Ewing sarcoma cell lines, TP53 WT and mutant; assay: Cell proliferation (CellTiter-Glo), panel of Ewing sarcoma cell lines; format: cell-based; conditions: WT and TP53-KO Ewing Sarcoma cells
Protocol: as §1

DUBs in HEK293AD lysate = DUBs in HEK293AD lysate (Homo sapiens, UniProt Q93009); assay: In situ DUB profiling, competitive ABPP with Bio-Ub-PA/VME and quantitative MS; format: binding; conditions: HEK293 crude cell extract, 5 hours pre-incubation
Protocol: DUB profiling was performed using conditions similar to those in Lawson, A. P. et al. Identification of deubiquitinase targets of isothiocyanates using SILAC-assisted quantitative mass spectrometry. Oncotarget 5, (2017). HEK 293AD cells were lysed using target engagement lysis buffer (50 mM Tris pH 8.0, 150 mM NaCl, 5 mM MgCl2, 0.5 mM EDTA, 0.5% NP-40, 10% glycerol, 1 mM TCEP, protease and phosphatase inhibitors), and the lysate was cleared by centrifugation. […] Excess inhibitor was removed using a 30K Amicon spin filter, then the resulting lysate was incubated with 1 μM each of Biotin-Ub-PA and Biotin-Ub-VME for 90 minutes at RT. SDS was added to a final concentration of 1.2%, and samples were heated to 80° C. for 5 minutes. After cooling to RT, 1×PBS was added to dilute the final SDS concentration to 0.2%. […]
Streptavidin beads were resuspended in 95 μL 100 mM Tris pH 8.0. […] Eluted peptides were then analyzed by nanoLC-MS as described (Ficarro, S. B. et al. Improved electrospray ionization efficiency compensates for diminished chromatographic resolution and enables proteomics analysis of tyrosine signaling in embryonic stem cells. Anal. Chem. 81, 3440-3447 (2009)) with a NanoAcquity UPLC system (Waters, Milford, MA) interfaced to a QExactive HF mass spectrometer (Thermofisher Scientific, San Jose, CA). […]

USP7-F291N = USP7-F291N (Homo sapiens (Human), UniProt Q93009, F291N); assay: Ub-AMC assay with mutant USP7-F291N; format: biochemical; conditions: 6-hr pre-incubation
Protocol: (§2) Full length USP7 was tested for its activity in Ubiquitin-AMC assay in presence or absence of inhibitors. USP7 (5 nM) was pre-incubated for 6 hours at room temperature with different concentrations of inhibitors or DMSO as a control in 50 mM HEPES pH 7.5, 0.5 mM EDTA, 11 μM ovalbumin, and 5 mM DTT. Ubiquitin-AMC (Boston Biochem) was then added to a final concentration of 500 nM. The initial rate of the reaction was measured by collecting fluorescence data at one minute intervals over 30-minute period using a Clariostar fluorescence plate reader at excitation and emission wavelength of 345 and 445 nm respectively. The calculated initial rate values were plotted against inhibitor concentrations to determine IC50s. All the experimental data were plotted using Prism GraphPad. All assays for each compound were performed at least twice for each compound.

USP7-Q351S = USP7-Q351S (Homo sapiens (Human), UniProt Q93009, Q351S); assay: Ub-AMC assay with mutant USP7-Q351S; format: biochemical; conditions: 6-hr pre-incubation
Protocol: as §2

USP7-Q351S, sequence (Q93009 whole entry Q351S): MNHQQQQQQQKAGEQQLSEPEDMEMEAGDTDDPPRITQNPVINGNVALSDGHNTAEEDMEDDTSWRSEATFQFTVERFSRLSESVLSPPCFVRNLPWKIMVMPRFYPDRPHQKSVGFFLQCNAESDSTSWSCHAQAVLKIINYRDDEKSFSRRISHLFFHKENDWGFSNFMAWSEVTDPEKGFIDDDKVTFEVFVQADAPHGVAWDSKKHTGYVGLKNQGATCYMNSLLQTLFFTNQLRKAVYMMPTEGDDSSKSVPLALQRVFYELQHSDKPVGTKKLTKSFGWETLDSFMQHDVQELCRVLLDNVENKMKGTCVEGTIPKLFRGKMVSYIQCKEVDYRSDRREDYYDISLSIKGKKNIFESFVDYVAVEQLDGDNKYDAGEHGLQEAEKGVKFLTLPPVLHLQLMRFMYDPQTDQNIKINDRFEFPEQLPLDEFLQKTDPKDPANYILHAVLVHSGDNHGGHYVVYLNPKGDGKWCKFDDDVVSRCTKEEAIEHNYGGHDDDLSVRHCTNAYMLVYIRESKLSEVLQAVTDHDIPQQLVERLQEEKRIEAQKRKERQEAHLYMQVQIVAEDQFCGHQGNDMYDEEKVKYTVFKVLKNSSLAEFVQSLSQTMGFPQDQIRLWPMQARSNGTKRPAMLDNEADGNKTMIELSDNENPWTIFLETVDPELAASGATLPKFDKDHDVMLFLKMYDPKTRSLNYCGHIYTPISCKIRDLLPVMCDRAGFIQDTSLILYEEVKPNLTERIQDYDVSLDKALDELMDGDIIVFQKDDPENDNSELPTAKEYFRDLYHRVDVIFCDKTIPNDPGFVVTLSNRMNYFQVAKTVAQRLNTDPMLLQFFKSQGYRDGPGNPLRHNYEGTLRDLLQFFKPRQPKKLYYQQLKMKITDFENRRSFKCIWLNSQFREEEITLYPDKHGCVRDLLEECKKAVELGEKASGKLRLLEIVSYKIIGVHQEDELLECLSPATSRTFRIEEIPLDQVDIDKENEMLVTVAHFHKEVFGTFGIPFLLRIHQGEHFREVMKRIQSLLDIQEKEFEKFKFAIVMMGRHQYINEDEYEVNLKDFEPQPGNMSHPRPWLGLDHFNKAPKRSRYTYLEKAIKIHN
USP7-F291N, sequence (Q93009 whole entry F291N): as the sequence (Q93009 whole entry Q351S) above, with F291N, S351Q counted along it

CN1CCN(CCC(=O)Nc2ccc3c(=O)n(CC4(O)CCN(C(=O)[C@@H](CCCNC(=O)c5ccc6c(Cl)c7c(nc6c5)CCCC7)Cc5ccccc5)CC4)cnc3c2)CC1 [compound 6, (S)—N-(4-benzyl-5-(4-hydroxy-4-((7-(3-(4-methylpiperazin-1-yl)propanamido)-4-oxoquinazolin-3(4H)-yl)methyl)piperidin-1-yl)-5-oxopentyl)-9-chloro-5,6,7,8-tetrahydroacridine-3-carboxamide]
cytotoxic effect after TP53 knockout [1]: rescued by TP53 knockout
transcription of p53 target genes (CDKN1A, GADD45A, BAX, DDB2) [2]: stimulating transcription of p53 target genes
TP53 dependence of cell killing [3]: highly TP53-dependent cell killing
blocking of USP7 labeling by DUB ABPs (DUBs in HEK293AD lysate): significantly blocked USP7 labeling
loss in potency compared to wild-type enzyme (USP7-F291N): 100 fold
loss in potency compared to wild-type enzyme (USP7-Q351S): 100 fold
